Data: US5008260A, “Cephem derivatives” (Eisai Co., Ltd., priority 1985, dated 1991)
Converted amounts (≈) assume the structure as drawn.

Key:
[1] = test system: Pseudomonas aeruginosa EP-01; test: Antibacterial activity (MIC), Pseudomonas aeruginosa EP-01; assay type: cell-based; conditions: EP01
[2] = test system: Serratia marcescens ES-75; test: Antibacterial activity (MIC), Serratia marcescens ES-75; assay type: cell-based; conditions: ES75
[3] = test system: Staphylococcus aureus E31106; test: Antibacterial activity (MIC), Staphylococcus aureus E31106; assay type: cell-based; conditions: Staphylococcus aureus E31106, lactamase producing bacteria
[4] = test system: Citrobacter freundii EC-34; test: Antibacterial activity (MIC), Citrobacter freundii EC-34; assay type: cell-based; conditions: EC34; Citrobacter freundii EC-34, lactamase producing bacteria
[5] = test system: Pseudomonas maltophilia E04004; test: Antibacterial activity (MIC), Pseudomonas maltophilia E04004; assay type: cell-based; conditions: Stenotrophomonas maltophilia
[6] = test system: Staphylococcus aureus 209-P; test: Antibacterial activity (MIC), Staphylococcus aureus 209-P; assay type: cell-based
[7] = test system: Escherichia coli NIHJ; test: Antibacterial activity (MIC), Escherichia coli NIHJ; assay type: cell-based
[8] = Acute toxicity LD50 (mouse, intravenous injection); conditions: in vivo
[9] = mouse, intravenous injection; prior-art compound; cited from earlier work

| SMILES | MIC [1] [µg/mL] | MIC [2] [µg/mL] | MIC [3] [µg/mL] | MIC [4] [µg/mL] | MIC [5] [µg/mL] | MIC [6] [µg/mL] | MIC [7] [µg/mL] | LD50 [8] [mg/kg] | acute toxic value LD50 [9] [mg/kg] |
| --- | --- | --- | --- | --- | --- | --- | --- | --- | --- |
| CO/N=C(\C(=O)N[C@@H]1C(=O)N2C(C(=O)[O-])=C(C[N+]34CCC(C)(CC3)CC4)CS[C@H]12)c1nsc(N)n1 [Example 15, 7β-[(Z)-2-(5-Amino-1,2,4-thiadiazol-3-yl)-2-methoxyiminoacetamido]-3-(4-methyl-1-quinuclidinio)methyl-3-cephem-4-carboxylate] | 0.8 (≈ 1.53 µM) | 0.2 (≈ 0.383 µM) | 50 (≈ 95.9 µM) | 0.05 (≈ 0.0959 µM) | 1.56 (≈ 2.99 µM) | 0.8 (≈ 1.53 µM) | 0.05 (≈ 0.0959 µM) | – | – |
| CO/N=C(\C(=O)N[C@@H]1C(=O)N2C(C(=O)[O-])=C(C[N+]34CCC(O)(CC3)C4)CS[C@H]12)c1nsc(N)n1 [Example 2, 7β-[(Z)-2-(5-Amino-1,2,4-thiadiazol-3-yl)-2-methoxyiminoacetamido]-3-(4-hydroxy-1,4-methylene-1-piperidinio)methyl-3-cephem-4-carboxylate] | 0.8 (≈ 1.57 µM) | 0.2 (≈ 0.392 µM) | 50 (≈ 98.1 µM) | 0.1 (≈ 0.196 µM) | 12.5 (≈ 24.5 µM) | 0.8 (≈ 1.57 µM) | 0.1 (≈ 0.196 µM) | > 3000 | – |
| CO/N=C(\C(=O)N[C@@H]1C(=O)N2C(C(=O)[O-])=C(C[N+]34CCC(O)(CC3)CC4)CS[C@H]12)c1nsc(N)n1 [Example 4, 7β-[(Z)-2-(5-Amino-1,2,4-thiadiazol-3-yl)-2-methoxyiminoacetamido]-3-(4-hydroxy-1-quinuclidinio)methyl-3-cephem-4-carboxylate] | 0.8 (≈ 1.53 µM) | 0.2 (≈ 0.382 µM) | 25 (≈ 47.7 µM) | 0.1 (≈ 0.191 µM) | 6.25 (≈ 11.9 µM) | 1.56 (≈ 2.98 µM) | 0.1 (≈ 0.191 µM) | > 3000 | – |
| CO/N=C(\C(=O)N[C@@H]1C(=O)N2C(C(=O)[O-])=C(C[N+]34CCC(CO)(CC3)CC4)CS[C@H]12)c1nsc(N)n1 [Example 14, 7β-[(Z)-2-(5-Amino-1,2,4-thiadiazol-3-yl)-2-methoxyiminoacetamido]-3-[4-hydroxymethyl-1-quinuclidinio]methyl-3-cephem-4-carboxylate] | 0.8 (≈ 1.49 µM) | 0.2 (≈ 0.372 µM) | 50 (≈ 93 µM) | 0.1 (≈ 0.186 µM) | 3.13 (≈ 5.82 µM) | 1.56 (≈ 2.9 µM) | 0.1 (≈ 0.186 µM) | – | – |
| CO/N=C(\C(=O)N[C@@H]1C(=O)N2C(C(=O)[O-])=C(C[N+]34CCC(C(N)=O)(CC3)CC4)CS[C@H]12)c1nsc(N)n1 [Example 6, 7β-[(Z)-2-(5-Amino-1,2,4-thiadiazol-3-yl)-2-methoxyiminoacetamido]-3-(4-carbamoyl-1-quinuclidinio)methyl-3-cephem-4-carboxylate] | 0.4 (≈ 0.726 µM) | 0.2 (≈ 0.363 µM) | 25 (≈ 45.4 µM) | 0.1 (≈ 0.182 µM) | 3.13 (≈ 5.68 µM) | 3.13 (≈ 5.68 µM) | 0.1 (≈ 0.182 µM) | > 3000 | – |
| CO/N=C(\C(=O)N[C@@H]1C(=O)N2C(C(=O)[O-])=C(C[N+]34CCC(O)(CC3)C4)CS[C@H]12)c1csc(N)n1 [Example 1, 7β-[(Z)-2-(2-Aminothiazol-4-yl)-2-methoxyiminoacetamido]-3-(4-hydroxy-1,4-methylene-1-piperidinio)methyl-3-cephem-4-carboxylate] | 1.56 (≈ 3.07 µM) | 0.1 (≈ 0.197 µM) | 100 (≈ 197 µM) | 0.1 (≈ 0.197 µM) | 25 (≈ 49.2 µM) | 0.8 (≈ 1.57 µM) | 0.05 (≈ 0.0983 µM) | > 3000 | – |
| CO/N=C(\C(=O)N[C@@H]1C(=O)N2C(C(=O)[O-])=C(C[N+]34CCC(C(N)=O)(CC3)CC4)CS[C@H]12)c1csc(N)n1 [Example 5, 7β-[(Z)-2-(2-Aminothiazol-4-yl)-2-methoxyiminoacetamido]-3-(4-carbamoyl-1-quinuclidinio)methyl-3-cephem-4-carboxylate] | 1.56 (≈ 2.84 µM) | 0.05 (≈ 0.091 µM) | 100 (≈ 182 µM) | 0.1 (≈ 0.182 µM) | 12.5 (≈ 22.7 µM) | 1.56 (≈ 2.84 µM) | 0.05 (≈ 0.091 µM) | > 3000 | – |
| CO/N=C(\C(=O)N[C@@H]1C(=O)N2C(C(=O)[O-])=C(C[N+]34CCC(O)(CC3)CC4)CS[C@H]12)c1csc(N)n1 [Example 3, 7β-[(Z)-2-(2-Aminothiazol-4-yl)-2-methoxyiminoacetamido]-3-(4-hydroxy-1-quinuclidinio)methyl-3-cephem-4-carboxylate] | 1.56 (≈ 2.99 µM) | 0.1 (≈ 0.191 µM) | 100 (≈ 191 µM) | 0.1 (≈ 0.191 µM) | 6.25 (≈ 12 µM) | 0.8 (≈ 1.53 µM) | 0.05 (≈ 0.0957 µM) | > 3000 | – |
| CO/N=C(\C(=O)N[C@@H]1C(=O)N2C(C(=O)[O-])=C(C[N+]34CCC(CC3)CC4)CS[C@H]12)c1csc(N)n1 [7β-[(Z)-2-(2-aminothiazol-4-yl)-2-methoxyiminoacetamido]-3-(1-quinuclidinio)methyl-3-cephem-4-carboxylate] | – | – | – | – | – | – | – | – | ≤ 100 |
